Experimental findings from patent US20120258974A1, “USE OF A2B ADENOSINE RECEPTOR ANTAGONISTS FOR TREATING HEART FAILURE AND ARRHYTHMIA IN POST-MYOCARDIAL INFARCTION PATIENTS” (GILEAD SCIENCES, INC., priority 2011, published 2012) are described below.

Molecules are shown by their SMILES. “Also recorded” adds a separate entry of the source.

The subject of assay [1] is rats with MI (25 minutes coronary occlusion followed by reperfusion). In words: Conduction velocities in LV myocardium, optical mapping, rat post-MI model (Example 6). It counts as in vivo. The following applies: 5 week post-MI. As for the experimental part: (§1) The effects of Compound A in a rat model of post-MI remodeling and VT were determined. MI was caused by 25 minutes occlusion at the left anterior descending coronary ligation followed by reperfusion. One week later, rats were administered either vehicle or Compound A (100 mg/kg) once daily by oral gavage. Serial echocardiograms (ECHOs) to measure LV ejection fraction (LVEF), stroke volume and LV end systolic volume (LVESV) were obtained at baseline, 1 week and 5 week post-MI. Electrophysiological studies, optical mapping, histology and biomarker analysis were conducted at 5 week post-MI.
Abnormal electrical impulse conduction in the infarct border zone (IBZ) is important in the pathogenesis of post-MI arrhythmias. As shown in the conduction vector maps (FIG. 13A-B), the vehicle control group has much slower conduction velocity than the Compound A treated animals. To quantify the impact of Compound A on conduction properties, conduction velocities (CVs) were measured for infarct, border, and normal zones of LV myocardium. CVs in normal zones were fastest among all zones and were similar between placebo and Compound A groups (FIG. 14A). […] Finally, CVs in IBZs of both groups were in between those of non-infarct and infarct zones.

In another assay the test system is caspase-1. In words: Caspase-1 activity in heart tissue 72 hours after surgery (Example 4). The following applies: 4 mg/kg i.p. twice daily from coronary ligation. It counts as in vivo, mouse. On the procedure: Adult out-bred male CD1 mice (8-12 weeks of age) were supplied by Harlan Sprague Dawley (Indianapolis, Ind.). The experiments were conducted under the guidelines of laboratory animals for biomedical research published by National Institutes of Health (No. 85-23, revised 1996). The study protocol was approved by the Virginia Commonwealth University Institutional Animal Care and Use Committee. Experimental AMI was induced by permanent coronary artery ligation in order to induce a large non-reperfused infarct involving approximately 30% of the left ventricle and leading to an ischemic dilated cardiomyopathy (Mezzaroma et al. Proc Natl Acad Sci 2011—in press and Abbate et al. Circulation 2008; 117:2670-83). […]
An additional subset of mice was sacrificed 72 hours after surgery (N=4-6 per treatment group). […] The tissue activity of caspase-1 was determined by cleavage of a fluorogenic substrate (CaspACE, Promega, Madison, Wis.) (Abbate et al. Circulation 2008; 117:2670-83). […] Fluorescence was measured after 60 minutes and was expressed as arbitrary fluorescence units produced by one microgram of sample per minute (fluorescence/μg/min) and calculated as fold change compared to the caspase-1 activity in homogenates of the hearts of sham-operated mice.

Another assay has as its system ob/ob model mice. In words: Inflammatory biomarker expression in ob/ob mice after 28-day dosing (Example 5). The class given is in vivo, mouse. On the procedure:
The A2B antagonist, Compound A (3 mg/kg/day or 10 mg/kg/day), was given to 6 weeks old ob/ob model mice for 28 days. At the end of the 28-day dosing, expression of a number of inflammatory biomarkers, MCP-1, IL-1b, IL-2 and IL-6, were measured in these mice as compared to control (vehicle).

Assay [2] deals with acute myocardial infarction in the mouse (male ICR mice, coronary artery ligation). The experiment in a line: Cardiac remodeling after coronary artery ligation in ICR mice (Example 3). The class given is in vivo. On the procedure:
Male ICR mice underwent coronary artery ligation or sham surgery (N=8-10 per group). A selective A2B antagonist, Compound A 4 mg/kg in a formulated dosing suspension, every 12 hours i.p., was given starting immediately after the surgery and continued for 14 days. Transthoracic echocardiography was performed prior to surgery and then 7, 14 and 28 days later. A subgroup of mice was sacrificed 72 hours after surgery and the activity of caspase-1, a key proinflammatory mediator, was measured in the cardiac tissue.

The subject of assay [3] is CD1 mice with experimental AMI (permanent coronary artery ligation). The experiment in a line: Circulating levels of cytokines and soluble adhesion molecules at day 28 (Luminex, Example 4). It counts as in vivo, mouse. The note with it: day 28 after surgery, vs vehicle. As for the experimental part: Adult out-bred male CD1 mice (8-12 weeks of age) were supplied by Harlan Sprague Dawley (Indianapolis, Ind.). The experiments were conducted under the guidelines of laboratory animals for biomedical research published by National Institutes of Health (No. 85-23, revised 1996). The study protocol was approved by the Virginia Commonwealth University Institutional Animal Care and Use Committee. Experimental AMI was induced by permanent coronary artery ligation in order to induce a large non-reperfused infarct involving approximately 30% of the left ventricle and leading to an ischemic dilated cardiomyopathy (Mezzaroma et al. Proc Natl Acad Sci 2011—in press and Abbate et al. Circulation 2008; 117:2670-83). Briefly, mice were orotracheally intubated under anesthesia (pentobarbital 50 to 70 mg/kg), placed in the right lateral decubitus position, then subjected to a left thoracotomy, pericardiectomy, and ligation of the proximal left coronary artery. The chest was closed and the animals were allowed to recover. The mice surviving surgery were randomly assigned to the different groups of treatment (N=6-15 per group). Sham operations were performed wherein animals underwent the same surgical procedure without coronary artery ligation (N=4-8 per group).
The A2B AdoR antagonist, Compound A, was obtained from Gilead Sciences, Foster City, Calif. Mice were randomly assigned to treatment with Compound A (4 mg/kg) or matching dose of vehicle administered intraperitoneally (final volume 0.13 mL) every 12 hours for 14 days starting immediately after coronary artery ligation surgery. An additional group of mice received a lower dose of Compound A (2 mg/kg) to explore a dose-response relationship. Two additional groups of mice received Compound A (4 mg/kg) starting 1 hour after surgery to simulate a clinical scenario of treatment delay. […] To simulate a clinically relevant scenario in which drug treatment may occur with some delay after AMI, this example compared treatment with Compound A without delay with groups in which the A2B AdoR antagonist was given with 1 hour of delay.
The plasma concentrations of IL-1β and […], Tumor Necrosis Factor-α (TNF-α) and soluble adhesion molecules (E-selectin, Intercellular adhesion molecule-1 [ICAM-1] and vascular cellular adhesion molecule [VCAM]), that are induced by IL-1β, were determined at day 28 after surgery using Luminex kits obtained from Millipore (Billerica, Mass.) according to the manufacturer's instructions. A blood sample was obtained via a direct cardiac puncture immediately prior to killing the animals.

Assay [4] relates to rats with MI (25 minutes coronary occlusion followed by reperfusion). The experiment in a line: Histology of fibrosis in the infarct border zone, rat post-MI model (Example 6). The following applies: 5 week post-MI; Sirius red; vs vehicle control. The class given is in vivo. On the procedure:
as §1
Abnormal conduction in the IBZ is due to tissue remodeling. Excessive fibrosis in the IBZ is an important substrate for VT vulnerability.

Setting [5] is: 3 mg/kg/day or 10 mg/kg/day for 28 days, vs vehicle.
Where [6] appears, read: echocardiography, 4 mg/kg i.p. every 12 hours for 14 days, vs vehicle.

For `CCCn1c(=O)c2[nH]c(-c3cnn(Cc4cccc(C(F)(F)F)c4)c3)nc2n(CC)c1=O` [Compound A, 3-ethyl-1-propyl-8-(1-(3-(trifluoromethyl)benzyl)-1H-pyrazol-4-yl)-1H-purine-2,6(3H,7H)-dione], the “conduction velocities in normal zones” value in assay [1] (vs placebo) is “similar”. In assay [1] (vs placebo control), the “conduction velocities in IBZs” value is “significantly faster” and the “conduction velocities in infarct zones” value is listed as “significantly improved”. The “caspase-1 activation / activity in the heart during AMI” value in the assay with caspase-1 is “prevented; also recorded: nearly complete reduction”. Also, in the assay with ob/ob model mice (setting [5]), the “expression of IL-1b” value was “went down”, the “expression of IL-2” value is “went down”, the “expression of IL-6” value is given as “went down” and the “expression of MCP-1” value is reported as “went down”. Besides, in the assay on ob/ob model mice (10 mg/kg/day group, 28 days), the “reduction of IL-1b expression” value is given as “statistically significant” and the “reduction of MCP-1 expression” value is given as “statistically significant”. In assay [2] (4 mg/kg i.p. every 12 hours for 14 days, vehicle 42%), the “mice that died during the 4 weeks post-surgery” value is given as 25%. The “caspase-1 activity in the cardiac tissue” value in assay [2] (72 hours after surgery, 4 mg/kg i.p. every 12 hours, vs vehicle) was “significantly reduced”. Moreover, in assay [2] (setting [6]), the LV ejection fraction entry is “increased”, the end-diastolic diameter entry is “significantly reduced” and the myocardial performance index entry is given as “significantly reduced”. Also, in assay [3], the E-selectin plasma level entry is “significantly reduced”, the ICAM-1 plasma level result was “significantly reduced”, the IL-6 plasma level result is “significantly reduced” and the TNF-α plasma level entry was “significantly reduced”. The VCAM plasma level entry in assay [3] was “significantly reduced”. Further, the “fibrosis in the IBZ” value in assay [4] is given as “inhibited”.
